Reference: patent US20230210999A1, “TARGETED PROTEASE DEGRADATION (TED) PLATFORM” (EUBULUS BIOTHERAPEUTICS INC., priority 2020, published 2023)
pIC50: −log10 of the molar value. Where two headings read alike, the source gives them in different places.

Columns and labels:
NCIH82 cells = experiment: Cell proliferation experiment, NCI-H82; format: cell-based, human; settings: Homo sapiens
In short: (§1)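 Viability read by Alamar blue. 72 h treatment, 5-fold dilution series, duplicates; log-phase cells in 96-well plates; IC50 by curve fit.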

Daudi cells = experiment: Cell proliferation experiment, Daudi; format: cell-based, human; settings: Homo sapiens, Daudi
In short: as §1

U-87MG cells = experiment: Cell proliferation experiment, U-87MG; format: cell-based; settings: Homo sapiens, 72 h, read-out: Inhibitory activity IC50 of tested compounds on U-87MG cells
Method: (§2) Reagents: RPMI-1640 medium, McCoy's 5A medium, IMDM medium, MEM medium, L-15 medium, fetal bovine serum. Penicillin-Streptomycin double antibody, trypsin, etc., 2-mercaptoethanol, NEAA, pyruvate, etc.
(§3) The cells were cultured in conventional ways, and the cells should be passed at least 2 generations before plating. Cells at the logarithmic growth phase were collected, prepared into single cell suspensions and counted. The concentration of cells was adjusted to the desired concentration, and cells were inoculated into a 96-well cell culture plate at 100 μl per well. 100 μL of complete medium of the test compound were added to each well, set up 2 duplicate wells for each concentration, and diluted with a 5-fold gradient, and continued to culture for 72 h. All cells were subjected to IC50 test for corresponding samples. The experimental results are shown in Test Example 4.
(§4) The fluorescence intensity of each well was detected using the Alarm blue method, and IC50 was calculated.
(§5) IC50 was calculated according to the following formula:
(§6) Y=Max+(Min−Max)/[1+(X/IC50)×Slope]
(§7) wherein Min, Max and Slope represent the minimum, maximum and slope respectively.

MV4;11 cells = experiment: Cell proliferation experiment (Alamar blue, 72 h), MV4;11; format: cell-based, human; settings: Homo sapiens
In short: as §1

HT-29 cells = experiment: Cell proliferation experiment, HT-29; format: cell-based; settings: Homo sapiens, read-out: Inhibitory activity IC50 of tested compounds on HT-29 cells
Method: as §2, §3, §4, §5, §6, §7

MDA-MB-231 cells = experiment: Cell proliferation experiment, MDA-MB-231; format: cell-based, human; settings: Homo sapiens, MDA-MB-231, MDA-MB-231 cells; read-out: Inhibitory activity IC50 on MDA-MB-231
In short: as §1

PC-3 = experiment: Cell proliferation experiment, PC-3; format: cell-based, human; settings: Homo sapiens, PC-3, PC-3 cells; read-out: Inhibitory activity IC50 on PC-3
In short: as §1

[1] = NCI-H82, 72 h, NCIH82 cells, 72 h, read-out: Inhibitory activity IC50 of tested compounds on NCIH82 cells
[2] = 72 h, Daudi cells, 72 h, read-out: Inhibitory activity IC50 of tested compounds on Daudi cells
[3] = MV4-11, 72 h, MV4;11 cells, 72 h, read-out: Inhibitory activity IC50 of tested compounds on MV4;11 cells
[4] = NCI-H82, 72 h, read-out: Inhibitory activity IC50 of tested compounds on NCIH82 cells
[5] = 72 h, read-out: Inhibitory activity IC50 of tested compounds on Daudi cells
[6] = MV4-11, 72 h, read-out: Inhibitory activity IC50 of tested compounds on MV4;11 cells
[7] = NCI-H82, NCI-H82 cells, read-out: Inhibitory activity IC50 on NCI-H82
[8] = Daudi cells, read-out: Inhibitory activity IC50 on Daudi
[9] = MV4-11, MV4;11 cells, read-out: Inhibitory activity IC50 on MV4;11

SMILES | pIC50 (NCIH82 cells; [1]) | pIC50 (Daudi cells; [2]) | pIC50 (U-87MG cells; U-87MG cells) | pIC50 (MV4;11 cells; [3]) | pIC50 (HT-29 cells; HT-29 cells, 72 h) | pIC50 (NCIH82 cells; [7]) | pIC50 (Daudi cells; [8]) | pIC50 (MDA-MB-231 cells) | pIC50 (PC-3) | pIC50 (MV4;11 cells; [9]) | other results
CC[C@@H]1C(=O)N(C)c2cnc(Nc3ccc(C(=O)NCCCC(N)C(=O)Nc4cccc5c4CN(C4CCC(=O)NC4=O)C5=O)cc3OC)nc2N1C1CCCC1 (stereo in doubt) [Compound 856] | < 6.00 | < 6.00 | < 6.00 | 6.00 to 7.00 | – | – | – | – | – | – | –
CC[C@@H]1C(=O)N(C)c2cnc(Nc3ccc(C(=O)NCCOCCOCCOCCNCCC(=O)N[C@H](C(=O)N4C[C@H](O)C[C@H]4C(=O)NCc4ccc(-c5scnc5C)cc4)C(C)(C)C)cc3OC)nc2N1C1CCCC1 [Compound 850] | < 6.00 | < 6.00 | < 6.00 | < 6.00 | < 6.00 | – | – | – | – | – | –
CC[C@@H]1C(=O)N(C)c2cnc(Nc3ccc(C(=O)NCCOCCNCC(=O)N[C@H](C(=O)N4C[C@H](O)C[C@H]4C(=O)NCc4ccc(-c5scnc5C)cc4)C(C)(C)C)cc3OC)nc2N1C1CCCC1 [Compound 851] | – | – | – | – | – | – | – | – | – | – | pIC50 (NCIH82 cells; [4]): < 6.00; pIC50 (Daudi cells; [5]): < 6.00; pIC50 (U-87MG cells; U-87 MG): < 6.00; pIC50 (HT-29 cells; HT-29, 72 h): < 6.00; pIC50 (MV4;11 cells; [6]): 6.00 to 7.00
CC[C@@H]1C(=O)N(C)c2cnc(Nc3ccc(C(=O)NC4CCN(CCNCCOCC(=O)N[C@H](C(=O)N5C[C@H](O)C[C@H]5C(=O)NCc5ccc(-c6scnc6C)cc5)C(C)(C)C)CC4)cc3OC)nc2N1C1CCCC1 [Compound 852] | < 6.00 | < 6.00 | < 6.00 | < 6.00 | < 6.00 | – | – | – | – | – | –
CC[C@@H]1C(=O)N(C)c2cnc(Nc3ccc(C(=O)NCCOCCNCCC(=O)N[C@H](C(=O)N4C[C@H](O)C[C@H]4C(=O)NCc4ccc(-c5scnc5C)cc4)C(C)(C)C)cc3OC)nc2N1C1CCCC1 [Compound 853] | < 6.00 | < 6.00 | < 6.00 | < 6.00 | < 6.00 | – | – | – | – | – | –
CC[C@@H]1C(=O)N(C)c2cnc(Nc3ccc(C(=O)NCCOCCOCCOCCNCC(=O)N[C@H](C(=O)N4C[C@H](O)C[C@H]4C(=O)NCc4ccc(-c5scnc5C)cc4)C(C)(C)C)cc3OC)nc2N1C1CCCC1 [Compound 854] | – | – | – | – | – | – | – | – | – | – | pIC50 (NCIH82 cells; [4]): < 6.00; pIC50 (Daudi cells; [5]): < 6.00; pIC50 (U-87MG cells; U-87 MG): < 6.00; pIC50 (HT-29 cells; HT-29, 72 h): < 6.00; pIC50 (MV4;11 cells; [6]): 6.00 to 7.00
CC[C@@H]1C(=O)N(C)c2cnc(Nc3ccc(C(=O)NC4CCN(CCOCCNC5CN(c6cccc7c6C(=O)N(C6CCC(=O)NC6=O)C7=O)C5)CC4)cc3OC)nc2N1C1CCCC1 (stereo partly drawn) [Compound 857] | ≥ 6.00 | 6.00 to 7.00 | 6.00 to 6.30 | ≥ 7.00 | < 6.00 | – | – | – | – | – | –
CC[C@@H]1C(=O)N(C)c2cnc(Nc3ccc(C(=O)NC4CCN(CCOCCNCCC(=O)NC(C(=O)N5C[C@H](O)C[C@H]5C(=O)NCc5ccc(-c6scnc6C)cc5)C(C)(C)C)CC4)cc3OC)nc2N1C1CCCC1 (stereo partly drawn) [Compound 858] | < 6.00 | < 6.00 | < 6.00 | < 6.00 | < 6.00 | – | – | – | – | – | –
CC[C@@H]1C(=O)N(C)c2cnc(Nc3ccc(C(=O)NCCOCCNCCOCCC#Cc4cccc5c4CN(C4CCC(=O)NC4=O)C5=O)cc3OC)nc2N1C1CCCC1 (stereo partly drawn) [Compound 896] | < 6.00 | 6.00 to 7.00 | 6.00 to 6.30 | – | < 6.00 | – | – | – | – | – | –
NC(=O)c1ccccc1Nc1nc(Nc2ccc(C3CCN(C(=O)N[C@H]4CC[C@@H](NCCC#Cc5ccc6c(c5)CN(C5CCC(=O)NC5=O)C6=O)CC4)CC3)cc2)ncc1Cl (stereo partly drawn) [UB-181182] | – | – | – | – | – | 7.00 to 8.00 | 6.00 to 7.00 | 6.00 to 7.00 | 6.00 to 7.00 | > 8.00 | –
CNC(=O)c1ccccc1Nc1nc(Nc2ccc(N3CCC(C(=O)N[C@H]4CC[C@@H](NCCC#Cc5ccc6c(c5)CN(C5CCC(=O)NC5=O)C6=O)CC4)CC3)cc2)ncc1Cl (stereo partly drawn) [UB-181184] | – | – | – | – | – | 7.00 to 8.00 | 7.00 to 8.00 | 6.00 to 7.00 | 7.00 to 8.00 | > 8.00 | –
CNC(=O)c1ccccc1Nc1nc(Nc2ccc(N3CCN(C(=O)N[C@H]4CC[C@@H](N(C)CCC#Cc5ccc6c(c5)CN(C5CCC(=O)NC5=O)C6=O)CC4)CC3)cc2)ncc1Cl (stereo partly drawn) [UB-181185] | – | – | – | – | – | 7.00 to 8.00 | 7.00 to 8.00 | 7.00 to 8.00 | 7.00 to 8.00 | > 8.00 | –
CNC(=O)c1ccccc1Nc1nc(Nc2ccc(N3CCC(C(=O)N[C@H]4CC[C@@H](NCCC#Cc5cccc6c5CN(C5CCC(=O)NC5=O)C6=O)CC4)CC3)cc2)ncc1Cl (stereo partly drawn) [UB-181186] | – | – | – | – | – | 7.00 to 8.00 | 7.00 to 8.00 | 6.00 to 7.00 | > 8.00 | > 8.00 | –
CNC(=O)c1ccccc1Nc1nc(Nc2ccc(N3CCN(C(=O)NC4CCC(NCCC#Cc5cccc6c5CN(C5CCC(=O)NC5=O)C6=O)CC4)CC3)cc2)ncc1Cl (stereo not drawn) [UB-181187] | – | – | – | – | – | 6.00 to 7.00 | < 6.00 | < 6.00 | 7.00 to 8.00 | 7.00 to 8.00 | –
CNC(=O)c1ccccc1Nc1nc(Nc2ccc(N3CCN(C(=O)N[C@H]4CC[C@@H](NCCC#Cc5ccc6c(c5)CN(C5CCC(=O)NC5=O)C6=O)CC4)CC3)cn2)ncc1Cl (stereo partly drawn) [UB-181188] | – | – | – | – | – | 7.00 to 8.00 | 7.00 to 8.00 | < 6.00 | 7.00 to 8.00 | 7.00 to 8.00 | –
NC(=O)c1ccccc1Nc1nc(Nc2ccc(N3CCN(C(=O)N[C@H]4CC[C@@H](NCCC#Cc5ccc6c(c5)CN(C5CCC(=O)NC5=O)C6=O)CC4)CC3)cc2)ncc1Cl (stereo partly drawn) [UB-181189] | – | – | – | – | – | 7.00 to 8.00 | > 8.00 | 7.00 to 8.00 | > 8.00 | > 8.00 | –
NC(=O)c1ccccc1Nc1nc(Nc2ccc(N3CCN(C(=O)N[C@H]4CC[C@@H](NCCC#Cc5cccc6c5CN(C5CCC(=O)NC5=O)C6=O)CC4)CC3)cc2)ncc1Cl (stereo partly drawn) [UB-181190] | – | – | – | – | – | 7.00 to 8.00 | 7.00 to 8.00 | 7.00 to 8.00 | 7.00 to 8.00 | > 8.00 | –
NC(=O)c1ccccc1Nc1nc(Nc2ccc(C3CCN(C(=O)N[C@H]4CC[C@@H](NCC(O)CC#Cc5ccc6c(c5)CN(C5CCC(=O)NC5=O)C6=O)CC4)CC3)cc2)ncc1Cl (stereo partly drawn) [UB-181194] | – | – | – | – | – | < 6.00 | < 6.00 | < 6.00 | < 6.00 | > 8.00 | –
NC(=O)c1ccccc1Nc1nc(Nc2ccc(C3CCN(C(=O)N[C@H]4CC[C@@H](N[C@H]5C[C@H](C#Cc6ccc7c(c6)CN(C6CCC(=O)NC6=O)C7=O)C5)CC4)CC3)cc2)ncc1Cl (stereo partly drawn) [UB-181198] | – | – | – | – | – | 7.00 to 8.00 | 7.00 to 8.00 | 7.00 to 8.00 | 7.00 to 8.00 | > 8.00 | –
